PubChem BioAssay AID330 (DTP/NCI, 2004)
Inconclusive results and toxic doses are left out.

Test system: P388 leukemia ip, CD2F1 mice, survival T/C
Test: NCI In Vivo Anticancer Drug Screen. Data for tumor model P388 Leukemia (intraperitoneal) in CD2F1 (CDF1) mice
Settings: endpoint: median survival time, higher = longer survival
Experimental: The antitumor activity of compounds was measured in mice bearing transplantable tumors. Survival or tumor size were measured and the results are expressed as the measurement made in the treated group (T) divided by the measurement made in the vehicle treated control group (C). The tumor model used in this assay is P388 Leukemia (intraperitoneal) in CD2F1 (CDF1) mice

[1] = dose: 60.0 mg/kg/injection, schedule: Q01DX005 (ip), vehicle: Klucel (hydroxypropylcellulose) (HPC)
[2] = dose: 120.0 mg/kg/injection, schedule: Q01DX005 (ip), vehicle: Klucel (hydroxypropylcellulose) (HPC)

CN1C=c2c3c(ccc2=C2C=CC4C=C5OCOC5=CC4=C21)OCO3 (stereo not drawn)
T/C (dose: 4.0 mg/kg/injection, schedule: Q01DX009 (ip), vehicle: saline with Tween-80): 113 % of control
T/C (dose: 8.0 mg/kg/injection, schedule: Q01DX009 (ip), vehicle: saline with Tween-80): 107 % of control
T/C (dose: 16.0 mg/kg/injection, schedule: Q01DX009 (ip), vehicle: saline with Tween-80): 110 % of control

CCN(CC)C(=O)C1CCN(Cc2c[nH]c3ccccc23)CC1
T/C (dose: 25.0 mg/kg/injection, schedule: Q01DX009 (ip), vehicle: saline): 99 % of control
T/C (dose: 50.0 mg/kg/injection, schedule: Q01DX009 (ip), vehicle: saline): 104 % of control
T/C (dose: 100.0 mg/kg/injection, schedule: Q01DX009 (ip), vehicle: saline): 107 % of control

Cc1cc2c(cc1C)NC1=C(N2)OC(c2ccccc2C)C1=O (stereo not drawn)
T/C [1]: 96 % of control
T/C [2]: 106 % of control

CC(C)(O)[C@@H]1CC(=O)[C@]2(C)[C@H](CC[C@@]3(C)C(c4ccoc4)OC(=O)[C@H]4O[C@]432)[C@@]1(C)/C=C/C(=O)O (stereo partly drawn)
T/C (dose: 0.75 mg/kg/injection, schedule: Q01DX009 (ip), vehicle: saline + alcohol): 98 % of control
T/C (dose: 1.5 mg/kg/injection, schedule: Q01DX009 (ip), vehicle: saline + alcohol): 100 % of control
T/C (dose: 3.0 mg/kg/injection, schedule: Q01DX009 (ip), vehicle: saline + alcohol): 97 % of control
T/C (dose: 6.0 mg/kg/injection, schedule: Q01DX009 (ip), vehicle: saline + alcohol): 99 % of control

COc1ccc(CC2C(=O)NC(C)C(=O)N(C)C3C(=O)N(C)C(Cc4ccc(O)c(c4)Oc4ccc(cc4)C3O)C(=O)NC(C)C(=O)NC(C)C(=O)N2C)cc1 (stereo not drawn)
T/C (dose: 0.03 mg/kg/injection, schedule: Q01DX009 (ip), vehicle: Klucel (hydroxypropylcellulose) (HPC)): 94 % of control
T/C (dose: 0.03 mg/kg/injection, schedule: Q01DX009 (ip), vehicle: saline + alcohol): 100 % of control
T/C (dose: 0.03 mg/kg/injection, schedule: Q03HX024 (ip), vehicle: saline + alcohol): 123 % of control
T/C (dose: 0.06 mg/kg/injection, schedule: Q01DX009 (ip), vehicle: Klucel (hydroxypropylcellulose) (HPC)): 102 % of control
T/C (dose: 0.06 mg/kg/injection, schedule: Q01DX009 (ip), vehicle: saline + alcohol): 106 % of control
T/C (dose: 0.06 mg/kg/injection, schedule: Q03HX008 (ip), vehicle: saline + alcohol): 118 % of control
T/C (dose: 0.06 mg/kg/injection, schedule: Q03HX016 (ip), vehicle: saline + alcohol): 122 % of control
T/C (dose: 0.12 mg/kg/injection, schedule: Q01DX009 (ip), vehicle: Klucel (hydroxypropylcellulose) (HPC)): 104 % of control
T/C (dose: 0.12 mg/kg/injection, schedule: Q01DX009 (ip), vehicle: saline + alcohol): 111 % of control
T/C (dose: 0.13 mg/kg/injection, schedule: Q03HX024 (ip), vehicle: other): 103 % of control
T/C (dose: 0.13 mg/kg/injection, schedule: Q03HX024 (ip), vehicle: saline + alcohol): 153 % of control
T/C (dose: 0.25 mg/kg/injection, schedule: Q01DX005 (ip), vehicle: saline): 116 % of control
T/C (dose: 0.25 mg/kg/injection, schedule: Q01DX005 (iv), vehicle: other): 100 % of control
T/C (dose: 0.25 mg/kg/injection, schedule: Q01DX005 (iv), vehicle: saline): 107 % of control
T/C (dose: 0.25 mg/kg/injection, schedule: Q01DX009 (ip), vehicle: Klucel (hydroxypropylcellulose) (HPC)): 113 % of control
T/C (dose: 0.25 mg/kg/injection, schedule: Q01DX009 (sc), vehicle: other): 95 % of control
T/C (dose: 0.25 mg/kg/injection, schedule: Q03HX008 (ip), vehicle: other): 120 % of control
T/C (dose: 0.25 mg/kg/injection, schedule: Q03HX016 (ip), vehicle: other): 100 % of control
T/C (dose: 0.25 mg/kg/injection, schedule: Q03HX024 (ip), vehicle: other): 91 % of control
T/C (dose: 0.25 mg/kg/injection, schedule: Q03HX024 (ip), vehicle: saline + alcohol): 157 % of control
T/C (dose: 0.5 mg/kg/injection, schedule: Q01DX005 (iv), vehicle: other): 98 % of control
T/C (dose: 0.5 mg/kg/injection, schedule: Q01DX005 (iv), vehicle: saline): 114 % of control
T/C (dose: 0.5 mg/kg/injection, schedule: Q01DX009 (ip), vehicle: clinical formulation): 157 % of control
T/C (dose: 0.5 mg/kg/injection, schedule: Q01DX009 (ip), vehicle: water): 154 % of control
T/C (dose: 0.5 mg/kg/injection, schedule: Q01DX009 (oral), vehicle: other): 98 % of control
T/C (dose: 0.5 mg/kg/injection, schedule: Q01DX009 (sc), vehicle: other): 99 % of control
T/C (dose: 0.5 mg/kg/injection, schedule: Q03HX016 (ip), vehicle: saline + alcohol): 150 % of control
T/C (dose: 0.5 mg/kg/injection, schedule: Q03HX024 (ip), vehicle: saline + alcohol): 172 % of control
T/C (dose: 1.0 mg/kg/injection, schedule: Q01DX001 (ip), vehicle: other): 122 % of control
T/C (dose: 1.0 mg/kg/injection, schedule: Q01DX001 (oral), vehicle: other): 103 % of control
T/C (dose: 1.0 mg/kg/injection, schedule: Q01DX005 (ip), vehicle: saline): 158 % of control
T/C (dose: 1.0 mg/kg/injection, schedule: Q01DX005 (iv), vehicle: other): 99 % of control
T/C (dose: 1.0 mg/kg/injection, schedule: Q01DX009 (ip), vehicle: Klucel (hydroxypropylcellulose) (HPC)): 113 % of control
T/C (dose: 1.0 mg/kg/injection, schedule: Q01DX009 (ip), vehicle: clinical formulation): 198 % of control
T/C (dose: 1.0 mg/kg/injection, schedule: Q01DX009 (ip), vehicle: other): 167 % of control
T/C (dose: 1.0 mg/kg/injection, schedule: Q01DX009 (ip), vehicle: saline + alcohol): 172 % of control
T/C (dose: 1.0 mg/kg/injection, schedule: Q01DX009 (ip), vehicle: water): 166 % of control
T/C (dose: 1.0 mg/kg/injection, schedule: Q01DX009 (oral), vehicle: other): 95 % of control
T/C (dose: 1.0 mg/kg/injection, schedule: Q01DX009 (sc), vehicle: other): 95 % of control
T/C (dose: 2.0 mg/kg/injection, schedule: Q01DX001 (oral), vehicle: other): 97 % of control
T/C (dose: 2.0 mg/kg/injection, schedule: Q01DX005 (ip), vehicle: other): 167 % of control
T/C (dose: 2.0 mg/kg/injection, schedule: Q01DX005 (ip), vehicle: saline): 166 % of control
T/C (dose: 2.0 mg/kg/injection, schedule: Q01DX009 (ip), vehicle: clinical formulation): 195 % of control
T/C (dose: 2.0 mg/kg/injection, schedule: Q01DX009 (ip), vehicle: other): 183 % of control
T/C (dose: 2.0 mg/kg/injection, schedule: Q01DX009 (ip), vehicle: saline + alcohol): 184 % of control
T/C (dose: 2.0 mg/kg/injection, schedule: Q01DX009 (ip), vehicle: water): 184 % of control
T/C (dose: 2.0 mg/kg/injection, schedule: Q01DX009 (oral), vehicle: other): 122 % of control
T/C (dose: 2.0 mg/kg/injection, schedule: Q04DX003 (ip), vehicle: other): 155 % of control
T/C (dose: 4.0 mg/kg/injection, schedule: Q01DX001 (oral), vehicle: other): 100 % of control
T/C (dose: 4.0 mg/kg/injection, schedule: Q01DX005 (ip), vehicle: other): 165 % of control
T/C (dose: 4.0 mg/kg/injection, schedule: Q01DX009 (ip), vehicle: Klucel (hydroxypropylcellulose) (HPC)): 116 % of control
T/C (dose: 4.0 mg/kg/injection, schedule: Q01DX009 (ip), vehicle: other): 94 % of control
T/C (dose: 4.0 mg/kg/injection, schedule: Q01DX009 (ip), vehicle: saline + alcohol): 103 % of control
T/C (dose: 4.0 mg/kg/injection, schedule: Q01DX009 (oral), vehicle: other): 122 % of control
T/C (dose: 4.0 mg/kg/injection, schedule: Q04DX003 (ip), vehicle: other): 155 % of control
T/C (dose: 4.0 mg/kg/injection, schedule: Q08DX002 (ip), vehicle: other): 152 % of control
T/C (dose: 8.0 mg/kg/injection, schedule: Q01DX001 (oral), vehicle: other): 104 % of control
T/C (dose: 8.0 mg/kg/injection, schedule: Q01DX009 (oral), vehicle: other): 92 % of control
T/C (dose: 8.0 mg/kg/injection, schedule: Q04DX003 (ip), vehicle: other): 163 % of control
T/C (dose: 16.0 mg/kg/injection, schedule: Q01DX001 (oral), vehicle: other): 95 % of control
T/C (dose: 500.0 micrograms/kg/injection, schedule: Q01DX009 (ip), vehicle: saline with Tween-80): 150 % of control
T/C (dose: 1000.0 micrograms/kg/injection, schedule: Q01DX009 (ip), vehicle: saline with Tween-80): 177 % of control
T/C (dose: 2000.0 micrograms/kg/injection, schedule: Q01DX009 (ip), vehicle: saline with Tween-80): 152 % of control

O=c1[nH]nc(-c2ccccc2)c2nc3ccccc3n12
T/C [1]: 88 % of control
T/C [2]: 87 % of control
T/C (dose: 240.0 mg/kg/injection, schedule: Q01DX005 (ip), vehicle: Klucel (hydroxypropylcellulose) (HPC)): 88 % of control
